Data from patent publication US20250163057A1, “DCN-1 MODULATING COMPOUNDS AND METHODS OF USE THEREOF” (Cellarity, Inc., priority 2023, published 2025).
Where two headings read alike, the source gives them in different places.

Tests used:
fetal hemoglobin protein = experiment: HbF HPLC Cell Culture Assay; format: cell-based; details: for Hemoglobin HPLC Ymax obs (%): relative to a control compound; for EC50: 336 h, HbF induction, Day 14 of culture
Procedure: A Cell Culture Assay was performed to evaluate the ability of compounds to induce fetal hemoglobin in a cell culture. The amount fetal hemoglobin protein induced was measured by HPLC.
Cell culture began on Day −4 (thaw day). Thaw buffer was prepared by sterile filtering 6 mL of Human Serum Albumin and 144 mL of PBS to make sterile 1% I/PBS. Cells were removed from liquid nitrogen storage and mostly thawed in a 37° C. water bath. Once the ice in the cryovials was melted, cells were transferred quickly into a 50 mL conical tube. Cryovial was rinsed once with thaw buffer and buffer was transferred over to the conical tube as well. Next, doubling volumes of thaw buffer was added to the conical and gently swirled for ˜30 seconds to one minute (for example: 2 mL was added and swirled, then 4 mL, then 8 mL, and so on) until the volume in the conical is 32 mL. Cells and buffer were centrifuged at 300G for 8 minutes, and the supernatant was aspirated. Another 32 mL of thaw buffer was added slowly, swirling the tube. The tube was again centrifuged at 300G for 8 minutes and the supernatant was aspirated. Cells were counted by resuspending in 1 mL of expansion media and counting with AOPI to determine the concentration of cells/mL.
On day 2, Passage & Treatment Day, each cell culture well was counted. Next fresh CD34 Expansion Media was made which contained StemSpan SFEM, CC100 and TPO all from StemCell technologies. Appropriate volume of cells was collected, centrifuged at 300 g and resuspended in fresh media. Cells were plated in treatment format at a density of 200,000 cells/ml, 25,000 cells/well. Finally, they were treated with test compounds as well as positive and negative controls.
On Days 0, 3 & 5 the same process was carried out. First, each cell culture well was counted. Next Phase 1 Erythroid Differentiation Media was freshly made, which contained StemSpan SFEM, 2.5 U/ml EPO, 0.5 mg/ml Holo-TF, 1× Glutamax, 5 μl/ml chemically defined lipid mixture, 10 ng/ml insulin, 50 ng/ml SCF, 10 ng/ml IL-3. Appropriate volume of cells was collected, centrifuged at 300 g and resuspended in fresh media. Cells should now be in fresh wells at a density of 100,000 cells/ml. 60,000 cells, 60,000 cells and 100,000 cells for days 0, 3, 5 respectively. Finally, fresh compound was added to each well at each timepoint (Days 0, 3 & 5).
On Day 7 media and cell culture density changes. Each cell culture well was counted. Next, Phase 2 Erythroid Differentiation Media was freshly made, which contains StemSpan SFEM, 2.5 U/ml EPO, 0.5 mg/ml Holo-TF, 1× Glutamax, 5 μl/ml chemically defined lipid mixture, 10 ng/ml insulin, 50 ng/ml SCF. Appropriate volume of cells was collected, centrifuged at 300 g and resuspended in fresh media. Cells were plated in fresh wells at a density of 500,000 cells/ml, 300,000 cells/well. Finally, fresh compound was added to each well at Day 7 timepoint.
On Day 10 media formulation is once again changed. Each cell culture well was counted. Fresh Phase 3 Erythroid Differentiation Media was made which contains StemSpan SFEM, 2.5 U/ml EPO, 0.5 mg/ml Holo-TF, 1× Glutamax, 5 μl/ml chemically defined lipid mixture, 10 ng/ml insulin. Appropriate volume of cells was collected, centrifuged at 300 g and resuspended in fresh media. Cells were plated in fresh wells at a density of 500,000 cells/ml, 500,000 cells/well. Finally, fresh compound was added to each well at Day 10 timepoint.
On Day 12 the cell density is once again changed. Each cell culture well was counted. Fresh Phase 3 Erythroid Differentiation Media was made. Appropriate volume of cells was collected, centrifuged at 300 g and resuspended in fresh media. Cells were plated in fresh wells at a density of 1,000,000 cells/ml, 1,000,000 cells/well. Finally fresh compound was added to each well.
Day 14 (18th day of experiment) refers to the terminal day of culture. Each cell culture well was counted. Next between 150K and 650K cells were placed in a uniquely labeled 1.5 ml standard tube. […]

[1] = molecular target: DCN1 (DCUND1) protein PONY domain (Homo sapiens (Human), UniProt Q96GG9); experiment: TR-FRET assay, DCN1 binding with FAM-labeled probe
DCN1 (DCUND1) protein PONY domain, sequence (Q96GG9 60-248): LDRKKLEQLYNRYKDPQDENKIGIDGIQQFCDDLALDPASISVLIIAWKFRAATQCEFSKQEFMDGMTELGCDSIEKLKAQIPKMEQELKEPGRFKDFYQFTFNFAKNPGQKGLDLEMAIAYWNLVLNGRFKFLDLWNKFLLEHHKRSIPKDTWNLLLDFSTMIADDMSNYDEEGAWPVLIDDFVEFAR
Summary of the method: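 Biotinylated DCN1 PONY domain, labeled with streptavidin-Tb, was competed against a FAM-labeled non-covalent DCN1 inhibitor probe in buffer with TritonX and 200 mM NaCl. Conditions were 5 nM DCN1 with 20 nM FAM-probe, or 0.31 nM DCN1 with 100 nM FAM-plus 800 nM unlabeled probe. The TR-FRET ratio was read at 1, 5 and 24 h (0.1% DMSO).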

[2] = 24 hr after treatment with compound, read-out: TR FRET IC50 24 hr
[3] = read-out: TR FRET IC50 1 hr, 1 hr after treatment with compound
[4] = TR FRET IC50 1 hr (nM), 1 hr after treatment with compound

SMILES | Hemoglobin HPLC Ymax obs (%) (fetal hemoglobin protein) | IC50 [1, 2] | IC50 [1, 3] | EC50 (fetal hemoglobin protein) | IC50 [1, 4]
CCN1C(=O)[C@@H](NC(=O)c2cccc(C(F)(F)F)c2)[C@@H](c2ccc(F)cc2)c2c(C(=O)N3CCC[C@H]3C#N)nn(-c3ccccc3)c21 (mixture of isomers) [Compound I-34] | ++ (Hemoglobin HPLC Ymax greater than 65.0 and less than or equal to 100.0) |  |  |  | 
CCN1C(=O)[C@@H](NC(=O)c2cccc(C(F)(F)F)c2)[C@@H](C2CC2)c2c(C(=O)N3CCS(=O)(=O)C[C@H]3C#N)nn(C3CCOCC3)c21 (mixture of isomers) [Compound I-379] |  | ≤ 200 nM | ≤ 200 nM |  | 
CCN1C(=O)[C@@H](NC(=O)c2cccc(C(F)(F)F)c2)[C@@H](c2ccc(F)cc2)c2c(C(=O)N3CS(=O)(=O)C[C@H]3C#N)nn(C3CCOCC3)c21 (mixture of isomers) [Compound I-661, N-((4S,5S)-3-(4-cyano-1,1-dioxidothiazolidine-3-carbonyl)-7-ethyl-4-(4-fluorophenyl)-6-oxo-1-(tetrahydro-2H-pyran-4-yl)-4,5,6,7-tetrahydro-1H-pyrazolo[3,4-b]pyridin-5-yl)-3-(trifluoromethyl)benzamide] | ++ (Hemoglobin HPLC Ymax greater than 65.0 and less than or equal to 100.0) | ≤ 200 nM | ≤ 200 nM | > 200 nM | 
CCN1C(=O)[C@@H](NC(=O)c2cccc(C(F)(F)F)c2)[C@@H](c2ccc(F)cc2)c2c(CNC(=O)/C=C/C(=O)OC)nn(-c3ccccc3)c21 (racemic) [Compound I-3] | ++ (Hemoglobin HPLC Ymax greater than 65.0 and less than or equal to 100.0) | ≤ 200 nM | ≤ 200 nM | 50 to 200 nM | 
C=C(CN1CCC1)C(=O)NCc1nn(-c2ccccc2)c2c1[C@H](c1ccc(F)cc1)[C@H](NC(=O)c1cccc(C(F)(F)F)c1)C(=O)N2CC (racemic) [Compound I-49, rac-N-((4R,5R)-3-((2-(azetidin-1-ylmethyl)acrylamido)methyl)-7-ethyl-4-(4-fluorophenyl)-6-oxo-1-phenyl-4,5,6,7-tetrahydro-1H-pyrazolo[3,4-b]pyridin-5-yl)-3-(trifluoromethyl)benzamide] | ++ (Hemoglobin HPLC Ymax greater than 65.0 and less than or equal to 100.0) | ≤ 200 nM |  | ≤ 50 nM | ≤ 200 nM
CCN1C(=O)[C@@H](NC(=O)c2cccc(C(F)(F)F)c2)[C@@H](c2ccc(F)cc2)c2c(NC(=O)C3=CCC3)nn(-c3ccccc3)c21 (racemic) [Compound I-152] | ++ (Hemoglobin HPLC Ymax greater than 65.0 and less than or equal to 100.0) | ≤ 200 nM | ≤ 200 nM | > 200 nM | 
CCN1C(=O)[C@@H](NC(=O)c2cccc(C(F)(F)F)c2)[C@@H](c2ccc(F)cc2)c2c([C@@H](C)NC#N)nn(-c3ccccc3)c21 [Compound I-73, N-((4S,5S)-3-((R)-1-cyanamidoethyl)-7-ethyl-4-(4-fluorophenyl)-6-oxo-1-phenyl-4,5,6,7-tetrahydro-1H-pyrazolo[3,4-b]pyridin-5-yl)-3-(trifluoromethyl)benzamide] | ++ (Hemoglobin HPLC Ymax greater than 65.0 and less than or equal to 100.0) | ≤ 200 nM | ≤ 200 nM | > 200 nM | 
CCN1C(=O)[C@@H](NC(=O)c2cccc(C(F)(F)F)c2)[C@@H](c2ccc(F)cc2)c2c(CN(C)C#N)nn(-c3ccccc3)c21 [Compound I-92] | + (Hemoglobin HPLC Ymax greater than or equal to 0.0 and less than or equal to 65.0) | ≤ 200 nM | 200 to 1000 nM | > 200 nM | 
CCN1C(=O)[C@@H](NC(=O)c2cccc(C(F)(F)F)c2)[C@@H](c2ccc(F)cc2)c2c(C(=O)NC3(C#N)CC3)nn(-c3ccccc3)c21 [Compound I-112] | +++ (Hemoglobin HPLC Ymax greater than 100.0) | 200 to 1000 nM |  | > 200 nM | 1000 to 3000 nM
C=C(CN1CCC1)C(=O)NCc1nn(-c2ccccc2)c2c1[C@@H](c1ccc(F)cc1)[C@H](NC(=O)c1cccc(C(F)(F)F)c1)C(=O)N2CC [Compound I-139] | ++ (Hemoglobin HPLC Ymax greater than 65.0 and less than or equal to 100.0) | ≤ 200 nM | ≤ 200 nM | ≤ 50 nM | 
CCN1C(=O)[C@@H](NC(=O)c2cccc(C(F)(F)F)c2)[C@@H](c2ccc(F)cc2)c2c(CNC#N)nn(-c3ccccc3)c21 [Compound I-140, N-[(4S, 5S)-3-[(cyanoamino)methyl]-7-ethyl-4-(4-fluorophenyl)-6-oxo-1-phenyl-4,5-dihydropyrazolo[3,4-b]pyridine-5-yl]-3-(trifluoromethyl) benzamide] | + (Hemoglobin HPLC Ymax greater than or equal to 0.0 and less than or equal to 65.0) | ≤ 200 nM | ≤ 200 nM | > 200 nM | 
CCN1C(=O)[C@@H](NC(=O)c2cccc(C(F)(F)F)c2)[C@@H](c2ccc(F)cc2)c2c(C(=O)N3CCNC[C@H]3C#N)nn(C3CCOCC3)c21 [Compound I-363, N-((4S,5S)-3-((S)-2-cyanopiperazine-1-carbonyl)-7-ethyl-4-(4-fluorophenyl)-6-oxo-1-(tetrahydro-2H-pyran-4-yl)-4,5,6,7-tetrahydro-1H-pyrazolo[3,4-b]pyridin-5-yl)-3-(trifluoromethyl)benzamide] |  | ≤ 200 nM | ≤ 200 nM |  | 
CCN1C(=O)[C@@H](NC(=O)c2cccc(C(F)(F)F)c2)[C@@H](c2ccc(F)cc2)c2c(C(=O)N(C)[C@@H](C#N)CCN(C)C)nn(C3CCOCC3)c21 [Compound I-369] |  | ≤ 200 nM | ≤ 200 nM |  | 
CCN1C(=O)[C@@H](NC(=O)c2cccc(C(F)(F)F)c2)[C@@H](c2ccc(F)cc2)c2c(C(=O)N(C)[C@H](C#N)CCN(C)C)nn(C3CCOCC3)c21 [Compound I-370] |  | ≤ 200 nM | ≤ 200 nM |  | 
CCN1C(=O)[C@@H](NC(=O)c2cccc(C(F)(F)F)c2)[C@@H](C2CC2)c2c(C(=O)N3CCNC[C@H]3C#N)nn(-c3ccccc3)c21 [Compound I-383] |  | ≤ 200 nM | ≤ 200 nM |  | 
CCc1cccc(C(=O)N[C@@H]2C(=O)N(CC)c3c(c(C(=O)N4[C@H](C#N)C[C@H]5C[C@H]54)nn3C3CCOCC3)[C@@H]2C2CC2)c1 [Compound I-552, N-((4S,5S)-3-((1R,3S,5R)-3-cyano-2-azabicyclo[3.1.0]hexane-2-carbonyl)-4-cyclopropyl-7-ethyl-6-oxo-1-(tetrahydro-2H-pyran-4-yl)-4,5,6,7-tetrahydro-1H-pyrazolo[3,4-b]pyridin-5-yl)-3-ethylbenzamide] |  | ≤ 200 nM | ≤ 200 nM |  | 
CCN1C(=O)[C@@H](NC(=O)c2cccc(C(F)(F)F)c2)[C@@H](C2CC2)c2c(C(=O)N3CCNC[C@H]3C#N)nn(C3CCOCC3)c21 [Compound I-582] |  | ≤ 200 nM | ≤ 200 nM |  | 
CCN1C(=O)[C@@H](NC(=O)c2cccc(C(F)(F)F)c2)[C@@H](C2CC2)c2c(C(=O)N3CS(=O)(=O)C[C@H]3C#N)nn(C3CCOCC3)c21 [Compound I-617] |  | ≤ 200 nM | ≤ 200 nM |  | 
